Test results as given in patent publication EP1124440B1, “USE OF […] FOR FOODSTUFF AND COSMETIC MATERIAL” (Aquacal Limited, priority 1998, dated 2000).
Read-outs that look alike come from different tables or passages of the source.

Experiments:
[1] = water activity; biscuits cooked for exactly eleven minutes
Description: (§1) The biscuits were cooked for exactly eleven minutes and then analysed.
(§2) The following parameters were examined: friability, water activity (Aw) and colour.

[2] = ice-cream; B = Yellow Colour
Protocol: 3. Colour was measured using a Minolta colour meter and the results were expressed using LAB values: L = Lightness A = Red Colour B = Yellow Colour
4. A further batch of ice-cream was made to assess if calcium addition effected the over-run properties of the ice-cream.

[3] = biscuits
Protocol: Colour was measured using LAB values. L. Brightness A. Red B. Yellow
The LAB values of the biscuits were measured using a Minolta colour meter.

[4] = biscuits cooked for exactly eleven minutes
Description: Four batches of biscuits were made using the following recipe:
as §1, §2

For `O=C([O-])[O-].[Ca+2]` [Calcium Carbonate], the Aw [1] was “significantly increased”, the B value [2] was “significant difference” and the A value ([3]; A = Red) was “significantly reduced”. For the same compound, the B value ([3]; B = Yellow) was “did not effect this value”, the L value ([3]; L = Brightness) was 72.87 and the Friability [4] was “significantly reduced”.
